We go through two compounds from patent publication US20210134398A1, “Combinatorial Chemistry Computational System and Enhanced Selection Method” (Southern Methodist University, priority 2019, published 2021).

“Also recorded” adds a separate entry of the source.

Series [1] has as its target T1, P-gp-catalyzed transport of calcein AM in DU145TXR cells (Homo sapiens, UniProt P08183).
T1 construct: DU145 human prostate cancer cells^52 as well as the multidrug resistant sub-line, DU145TXR; endogenous in cells; host or cells: DU145TXR (paclitaxel-selected sub-line of human DU145 prostate cancer cells)
The series is described as follows: Calcein AM accumulation assay. The series is classed as cell-based. To be noted: after 6-hour pre-incubation, compared to parental 29. The procedure:
Accumulation and cellular retention of calcein AM in P-gp overexpressing prostate cancer cells upon incubation with Group 1 SMU-29 variants. Calcein AM accumulation assays have been used by us previously to evaluate P-gp-substrate accumulation in real time in the presence or absence of P-gp inhibitors^28. For these assays, P-gp overexpressing DU145TXR cells were incubated with the respective inhibitors in the presence of the P-gp substrate, calcein AM. Inhibition of P-gp leads to cellular accumulation of calcein AM and to cleavage of its acetoxymethyl ester groups, resulting in the generation of the highly fluorescent compound, calcein. The anionic calcein is not a substrate of P-gp and remains in the cells. In these assays, the relative fluorescence of cellular calcein was measured over time and the results of these assays are shown in FIG. 13A. […]
Calcein AM assay. To assess inhibition of P-gp-catalyzed transport of the P-gp pump substrate, calcein AM, DU145TXR cells were seeded in 96 wells plates and allowed to grow in complete medium until confluency was reached. Medium was removed, and cells were treated […] P-gp inhibitory compounds and 1 μg/mL calcein AM (Life Technologies, OR) and diluted into phenol red free RPMI 1640 media. To study the effect of pre-incubation of compounds, cells were treated with just P-gp inhibitory compounds and incubated at 37° C. for six hours before adding calcein AM. Fluorescence excitation at 485 nm with a 20 nm gate and at emission at 535 nm with a 20 nm gate was measured using a BioTek Cytation 5 imaging multi-mode reader (Bio-Tek, Winooski, Vt.) over 60 minutes in 20 minute intervals. DMSO was used as vehicle. Results were plotted as the mean with standard deviation (SD) of six replicates per concentration and are representative of at least two independent experiments.

The target in series [2] is P-gp (P-gp over-expressing cell line, DU145TXR) (Homo sapiens, UniProt P08183). Nature of the series: Cellular accumulation of experimental compounds by LC-MS/MS with and without tariquidar. To be noted: for Transport substrate for P-gp: not told. As to the method:
Stimulation of basal ATPase by 29-variants was used as an indicator that a compound may be a P-gp transport substrate. Effects on stimulated P-gp ATPase activity indicated whether a compound directly interfered with ATP usage by the protein (***, p<0.001; **, p<0.01; *, p<0.1; NS, not significant). Quantitative cellular accumulation of 29-variants was performed using LC-MS/MS and is presented as a ratio of the cellular amounts of 29-variants in the presence of P-gp inhibitor, tariquidar, divided by amounts accumulated in its absence. […] Binding of an ATP analog, SL-ATP, to P-gp was used to determine whether ATP binding to P-gp was affected by the 29-variants. Values +/−standard deviations are shown for at least three different P-gp preparations and three independent SL-ATP titration experiments. The values for SL-ATP binding in the presence of 29 were taken directly from Brewer et al. (2014).
Intracellular accumulation of compound 29 variants. Cell accumulation assays for each of the 29 variants were performed as in reference^28 to more directly assess whether the compounds were indeed transport substrates for P-gp.
Cellular Accumulation Assays for Experimental P-gp Inhibitors. Cells used (DU145TXR), cell culturing, cell exposure to compounds, cellular handling and extractions were performed as described in^28. LC-MS/MS methods were performed as described in^71 and as modified in^28.

The target of series [3] is T2, cysteineless mouse P-glycoprotein (Mus musculus, UniProt P21447, C1070A/C1121A/C1223A/C133A/C427A/C638A/C669A/C713A/C952A).
T2 construct: made in house; host or cells: Pichia pastoris
T2 sequence (P21447 whole entry C133A/C427A/C638A/C669A/C713A/C952A/C1070A/C1121A/C1223A): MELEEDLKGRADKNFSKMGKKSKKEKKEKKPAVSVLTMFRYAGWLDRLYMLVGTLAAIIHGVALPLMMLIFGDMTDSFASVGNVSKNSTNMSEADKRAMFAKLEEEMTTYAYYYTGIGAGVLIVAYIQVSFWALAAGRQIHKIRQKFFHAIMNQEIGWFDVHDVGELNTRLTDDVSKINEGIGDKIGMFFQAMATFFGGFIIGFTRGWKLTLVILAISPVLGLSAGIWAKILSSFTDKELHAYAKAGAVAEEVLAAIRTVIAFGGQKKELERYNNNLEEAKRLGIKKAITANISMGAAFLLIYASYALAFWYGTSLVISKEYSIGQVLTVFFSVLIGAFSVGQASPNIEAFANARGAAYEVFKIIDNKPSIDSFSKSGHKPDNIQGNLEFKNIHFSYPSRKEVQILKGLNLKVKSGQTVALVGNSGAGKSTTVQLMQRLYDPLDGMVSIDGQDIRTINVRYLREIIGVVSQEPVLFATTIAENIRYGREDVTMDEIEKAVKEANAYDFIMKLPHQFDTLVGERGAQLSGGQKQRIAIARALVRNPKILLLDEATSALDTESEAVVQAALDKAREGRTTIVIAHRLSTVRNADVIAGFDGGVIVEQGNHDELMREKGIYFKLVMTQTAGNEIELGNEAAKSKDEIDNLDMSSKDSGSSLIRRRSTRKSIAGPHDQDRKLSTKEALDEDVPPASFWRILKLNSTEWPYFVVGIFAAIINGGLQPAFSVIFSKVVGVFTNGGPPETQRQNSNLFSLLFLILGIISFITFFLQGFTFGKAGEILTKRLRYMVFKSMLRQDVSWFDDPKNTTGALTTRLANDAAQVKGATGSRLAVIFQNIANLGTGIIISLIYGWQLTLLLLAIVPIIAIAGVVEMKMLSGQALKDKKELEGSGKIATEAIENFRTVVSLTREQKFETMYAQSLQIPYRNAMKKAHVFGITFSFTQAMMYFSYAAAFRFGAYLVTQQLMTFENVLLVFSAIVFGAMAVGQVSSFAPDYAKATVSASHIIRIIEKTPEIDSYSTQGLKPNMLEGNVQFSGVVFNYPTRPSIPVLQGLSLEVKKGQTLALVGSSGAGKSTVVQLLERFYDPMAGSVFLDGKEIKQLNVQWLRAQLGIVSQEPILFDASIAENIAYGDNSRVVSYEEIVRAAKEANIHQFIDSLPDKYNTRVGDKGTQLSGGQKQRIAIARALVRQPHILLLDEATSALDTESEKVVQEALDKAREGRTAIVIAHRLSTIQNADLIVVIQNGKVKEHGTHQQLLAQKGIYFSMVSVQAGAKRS
The series is described as follows: SL-ATP (spin-labeled ATP analog) binding titration by ESR. To be noted: for Maximum ATP binding: in the presence of the compound, ± standard deviation. As to the method:
Effects of 29 variants on binding of an ATP-analog to purified P-glycoprotein. ATP binding in the presence of the 29 variants was assessed in titration assays using a spin-labeled analog of ATP, 2′,3′-SL-ATP (2′,3′-(2,2,5,5,-tetramethyl-3-pyrroline-1-oxyl-3-carboxylic acid ester) ATP; (2′,3′ indicates a rapid equilibrium of the ester bond between the C2′ and C3′ of the ribose moiety))^48-50, and electron spin resonance spectroscopy as described in^26. Due to the lower stability of the human P-glycoprotein in the extended times needed for these experiments, the cysteineless mouse protein was used here. The goal was to assess whether binding of the 29 variants to P-gp affected nucleotide binding to the protein.
ESR Measurements. ESR measurements were as described in^26. The amount of protein-bound spin-labeled (SL) adenine nucleotide was determined as the difference between the known total concentration of SL-ATP (2′,3′-(2,2,5,5,-tetramethyl-3-pyrroline-1-oxyl-3-carboxylic acid ester) —ATP^48) added and the free spin-labeled nucleotide (SL-ANP) observed in the experiment. Hyperbolic curve fitting of the results was performed using GraphPad Prism 7 to determine maximum binding and apparent affinity for the spin-labeled nucleotide. The equation used for the fitting the curves was […], where P1 corresponds to the maximum binding of SL-ANP (moles of SL-ANP bound per mole P-gp), and P2 equals the apparent dissociation constant for SL-ANP. To quantify the amount of free SL-ANP, standard curves were established where the signal amplitude of the high field signal of the ESR spectra of free SL-ANP in the absence of protein was correlated to the concentration of SL-ANP added. All ESR measurements were performed using a Bruker EMX 6/1 ESR spectrophotometer operating in X-band mode and equipped with a high sensitivity cavity. Spectra were acquired at a microwave frequency of 9.33 GHz, microwave power of 12.63 mW, 100 kHz modulation frequency and a resolution of 1024 points. The centerfield of the scan was at 3325 G and an area of 100 G was scanned. The peak to peak modulation amplitude was 1G and the time constant was set to 10.240 ms. The conversion time was 163.84 ms, resulting in a total time sweep of 167.772 s. The signal gain was adjusted for the SL-ATP concentrations in the different experiments.

Series [4] concerns the target T1, P-gp-catalyzed transport of calcein AM in DU145TXR cells. The series is described as follows: Calcein AM accumulation assay. In kind it is cell-based. The note with it: without pre-incubation, compared to parental 29, 5 μM stated for Group 2.

T1 sequence (P08183 whole entry): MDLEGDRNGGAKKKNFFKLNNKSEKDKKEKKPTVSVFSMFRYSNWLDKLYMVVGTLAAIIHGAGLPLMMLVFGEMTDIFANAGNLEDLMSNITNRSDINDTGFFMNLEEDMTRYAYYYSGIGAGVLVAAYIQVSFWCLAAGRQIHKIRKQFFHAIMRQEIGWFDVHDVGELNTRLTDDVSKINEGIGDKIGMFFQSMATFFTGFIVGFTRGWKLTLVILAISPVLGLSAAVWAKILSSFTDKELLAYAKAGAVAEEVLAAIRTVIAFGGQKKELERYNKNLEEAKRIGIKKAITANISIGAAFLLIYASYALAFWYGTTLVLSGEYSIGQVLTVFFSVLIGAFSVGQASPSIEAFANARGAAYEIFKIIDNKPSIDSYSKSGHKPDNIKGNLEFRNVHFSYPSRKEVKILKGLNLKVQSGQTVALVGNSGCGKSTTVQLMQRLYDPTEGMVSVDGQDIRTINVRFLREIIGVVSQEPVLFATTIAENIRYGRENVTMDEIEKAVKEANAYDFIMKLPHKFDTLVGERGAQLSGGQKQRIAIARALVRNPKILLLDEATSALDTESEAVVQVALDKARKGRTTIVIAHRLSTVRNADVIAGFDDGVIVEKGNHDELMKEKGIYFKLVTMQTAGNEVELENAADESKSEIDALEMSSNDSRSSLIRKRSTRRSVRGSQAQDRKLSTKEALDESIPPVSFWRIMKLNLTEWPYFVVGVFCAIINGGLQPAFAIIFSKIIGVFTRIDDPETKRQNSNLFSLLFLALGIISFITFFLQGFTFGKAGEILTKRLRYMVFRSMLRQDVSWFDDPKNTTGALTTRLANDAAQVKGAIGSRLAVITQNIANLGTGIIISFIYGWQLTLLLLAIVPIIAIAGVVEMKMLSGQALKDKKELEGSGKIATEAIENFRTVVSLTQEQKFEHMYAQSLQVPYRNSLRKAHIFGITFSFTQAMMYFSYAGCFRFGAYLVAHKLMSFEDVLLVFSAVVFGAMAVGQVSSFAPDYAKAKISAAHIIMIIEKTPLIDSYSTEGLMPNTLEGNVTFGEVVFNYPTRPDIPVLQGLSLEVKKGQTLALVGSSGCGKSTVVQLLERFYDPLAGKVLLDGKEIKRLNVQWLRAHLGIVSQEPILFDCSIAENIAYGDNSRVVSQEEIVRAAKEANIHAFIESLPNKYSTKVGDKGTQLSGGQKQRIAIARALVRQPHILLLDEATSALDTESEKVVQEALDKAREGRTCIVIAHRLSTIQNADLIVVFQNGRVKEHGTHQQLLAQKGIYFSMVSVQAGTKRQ
Chain of P-gp (P-gp over-expressing cell line, DU145TXR) (P08183 whole entry): as above

On to `Cc1cc(C)c(-c2cc(NC(=O)CSc3nnc4c(n3)[nH]c3ccccc34)n(-c3ccccc3)n2)cc1C` [29-541, 2-((5H-[1,2,4]triazino[5,6-b]indol-3-yl)thio)-N-(1-phenyl-3-(2,4,5-trimethylphenyl)-1H-pyrazol-5-yl)acetamide], for which the “Calcein accumulation in DU145TXR (in words)” value (shortened to “Calcein accumulation”) in series [1] (listed as 541) is reported as “exceeded 29 significantly; also recorded: exceeded 29 upon preincubation”. Further, in series [2] (human), the “Cellular accumulation: ratio of plus Tariquidar over no Tariquidar” value is 1.0 and the “Transport substrate for P-gp” value is recorded as “none of the Group 1 compounds functions as a transport substrate of P-gp”. The “Transport substrate for P-gp” value in series [2] is given as “no”. Also, in series [3], the “Effect on SL-ANP binding” value was “no” and the “Maximum ATP binding” value is 1.8 ± 0.1 mol SL-ANP bound/mol P-gp. Besides, in series [4] (listed as 541), the “Calcein accumulation” value is listed as “performed relatively equally to 29; also recorded: performed similar to the parental compound”.
For the compound `Cc1cc(C)c(-c2cc(NC(=O)CSc3cccc(NC(=O)c4cncc(Br)c4)c3)n(-c3ccccc3)n2)cc1C` [29-551, 5-bromo-N-(3-((2-oxo-2-((1-phenyl-3-(2,4,5-trimethylphenyl)-1H-pyrazol-5-yl)amino)ethyl)thio)phenyl)nicotinamide], in series [1], the “Calcein accumulation” value is given as “equivalent to 29 in efficacy”. In series [2] (human), the “Cellular accumulation: ratio of plus Tariquidar over no Tariquidar” value turned out to be 1.1 and the “Transport substrate for P-gp” value is on record as “none of the Group 1 compounds functions as a transport substrate of P-gp”. In series [3], the “Effect on SL-ANP binding” value is listed as “no” and the “Maximum ATP binding” value was found to be 1.7 ± 0.1 mol SL-ANP bound/mol P-gp. In series [4], the “Calcein accumulation” value was “marginally higher calcein accumulation than parental compound 29”.
